# Test results: the supplement of paper PMC7017272
# ± gives the standard deviation of the averaged measurements.
# Assays:
# Conditions in all cases: treatment time: 3 days
# UT-SCC-24A = experiment: drug sensitivity score (DSS); higher = more sensitive
# Protocol: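 HNSCC cell lines (500 cells/well, 384-well) were cultured on plastic, on top of (2D) or embedded (3D) in Matrigel or human leiomyoma matrix Myogel (500 ug/mL; Myogel 3D mixed with rat collagen I). Cells were treated for 3 days with 5 ten-fold concentrations of each drug, and viability was read by CellTiter-Glo. Suffixes _1/_2/_3 on drug names are replicates.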
# UT-SCC-106A [1] = experiment: maximal % inhibition of viability relative to DMSO; higher = stronger effect
# Protocol: (§1)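 HNSCC cell lines (500 cells/well, 384-well) were cultured on plastic, on top of (2D) or embedded (3D) in Matrigel or human leiomyoma matrix Myogel (500 ug/mL; Myogel 3D mixed with rat collagen I). Cells were treated for 3 days with 5 ten-fold concentrations of each drug, and viability was read by CellTiter-Glo. Viability was normalised to DMSO and benzethonium chloride controls and fitted with the FIMM DSRT pipeline to give IC50 (nM), maximal % inhibition and DSS. Suffixes _1/_2/_3 are replicates. Only inhibition-mode (IC50) fits are kept.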
# UT-SCC-14 [2] = experiment: as above
# Protocol: as §1
# UT-SCC-24B = experiment: as above
# Protocol: as §1
# UT-SCC-28 = experiment: as above
# Protocol: as §1
# UT-SCC-40 = experiment: as above
# Protocol: as §1
# UT-SCC-42A [3] = experiment: as above
# Protocol: as §1
# UT-SCC-42B [4] = experiment: as above
# Protocol: as §1
# UT-SCC-44 = experiment: as above
# Protocol: as §1
# UT-SCC-73 = experiment: as above
# Protocol: as §1
# UT-SCC-81 = experiment: as above
# Protocol: as §1
# UT-SCC-8 = experiment: as above
# Protocol: as §1
# UT-SCC-106A [5] = experiment: drug sensitivity score (DSS); higher = more sensitive; extreme values may be limits of the assay
# Outline: (§2)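 HPV-negative HNSCC cell lines were plated at 500 cells/well in 384-well plates, either on plastic, on wells coated with Matrigel or Myogel (500 µg/mL), or embedded in Matrigel or Myogel plus rat collagen I. Each compound was tested at five 10-fold concentrations over 3 days. Viability was measured by CellTiter-Glo 2.0 luminescence, and IC50, maximal inhibition and drug sensitivity score came from percent-inhibition dose–response curves fitted in the FIMM pipeline after normalisation to vehicle (0.1% DMSO) and cell-killing control wells.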
# UT-SCC-14 [6] = experiment: as above
# Outline: as §2
# UT-SCC-42A [7] = experiment: as above
# Outline: as §2
# UT-SCC-42B [8] = experiment: as above
# Outline: as §2
# [9] = culture condition: embedded in Matrigel
# [10] = culture condition: embedded in Myogel + collagen I
# [11] = culture condition: on top of Matrigel
# [12] = culture condition: on top of Myogel
# [13] = culture condition: plastic 2D (no matrix)
structure (smiles),measurement,setting,value
COc1ccc(-c2cc3c(C)nc(N)nc3n([C@H]3CC[C@H](OCCO)CC3)c2=O)cn1,drug sensitivity score,UT-SCC-24A; [9],17 ± 7.7 DSS
same,drug sensitivity score,UT-SCC-24A; [10],9.63 ± 6.9 DSS
same,drug sensitivity score,UT-SCC-24A; [11],11.9 ± 4.7 DSS
same,drug sensitivity score,UT-SCC-24A; [12],5.83 ± 2.9 DSS
same,drug sensitivity score,UT-SCC-24A; [13],11.4 ± 7.7 DSS
same,maximal % inhibition of viability,UT-SCC-106A [1]; [9],72.2 ± 2.7%
same,maximal % inhibition of viability,UT-SCC-106A [1]; [10],58.5 ± 8.7%
same,maximal % inhibition of viability,UT-SCC-106A [1]; [11],75.6 ± 2.8%
same,maximal % inhibition of viability,UT-SCC-106A [1]; [12],61.7 ± 13%
same,maximal % inhibition of viability,UT-SCC-106A [1]; [13],76.8 ± 4.8%
same,maximal % inhibition of viability,UT-SCC-14 [2]; [9],80.5 ± 3.8%
same,maximal % inhibition of viability,UT-SCC-14 [2]; [10],67.7 ± 5.3%
same,maximal % inhibition of viability,UT-SCC-14 [2]; [11],77.3 ± 1.4%
same,maximal % inhibition of viability,UT-SCC-14 [2]; [12],67.5 ± 3.8%
same,maximal % inhibition of viability,UT-SCC-14 [2]; [13],72.7 ± 3.6%
same,maximal % inhibition of viability,UT-SCC-24B; [9],99.6 ± 0.2%
same,maximal % inhibition of viability,UT-SCC-24B; [10],98.7 ± 0.36%
same,maximal % inhibition of viability,UT-SCC-24B; [11],99.57 ± 0.67%
same,maximal % inhibition of viability,UT-SCC-24B; [12],99 ± 1%
same,maximal % inhibition of viability,UT-SCC-24B; [13],99.73 ± 0.46%
same,maximal % inhibition of viability,UT-SCC-28; [9],63.3 ± 13%
same,maximal % inhibition of viability,UT-SCC-28; [10],65.3 ± 16%
same,maximal % inhibition of viability,UT-SCC-28; [11],66 ± 3.7%
same,maximal % inhibition of viability,UT-SCC-28; [13],56.8 ± 3.1%
same,maximal % inhibition of viability,UT-SCC-40; [9],88.6 ± 7.3%
same,maximal % inhibition of viability,UT-SCC-40; [10],74 ± 12%
same,maximal % inhibition of viability,UT-SCC-40; [11],85.1 ± 7.9%
same,maximal % inhibition of viability,UT-SCC-40; [12],64.1 ± 17%
same,maximal % inhibition of viability,UT-SCC-40; [13],68 ± 15%
same,maximal % inhibition of viability,UT-SCC-42A [3]; [9],71.4 ± 9.7%
same,maximal % inhibition of viability,UT-SCC-42A [3]; [10],62.5 ± 12%
same,maximal % inhibition of viability,UT-SCC-42A [3]; [11],72.1 ± 7.3%
same,maximal % inhibition of viability,UT-SCC-42A [3]; [12],63.3 ± 12%
same,maximal % inhibition of viability,UT-SCC-42A [3]; [13],72.5 ± 6.5%
same,maximal % inhibition of viability,UT-SCC-42B [4]; [9],63.8 ± 11%
same,maximal % inhibition of viability,UT-SCC-42B [4]; [11],31.5 ± 7%
same,maximal % inhibition of viability,UT-SCC-42B [4]; [12],18.5 ± 13%
same,maximal % inhibition of viability,UT-SCC-42B [4]; [13],21.6 ± 12%
same,maximal % inhibition of viability,UT-SCC-44; [9],45.9 ± 6.3%
same,maximal % inhibition of viability,UT-SCC-44; [10],40.2 ± 19%
same,maximal % inhibition of viability,UT-SCC-44; [11],44.7 ± 10%
same,maximal % inhibition of viability,UT-SCC-44; [12],43 ± 11%
same,maximal % inhibition of viability,UT-SCC-44; [13],43.2 ± 15%
same,maximal % inhibition of viability,UT-SCC-73; [9],87.9 ± 5%
same,maximal % inhibition of viability,UT-SCC-73; [10],79.9 ± 16%
same,maximal % inhibition of viability,UT-SCC-73; [11],82.7 ± 12%
same,maximal % inhibition of viability,UT-SCC-73; [12],80 ± 14%
same,maximal % inhibition of viability,UT-SCC-73; [13],85.4 ± 6.6%
same,maximal % inhibition of viability,UT-SCC-81; [9],94 ± 4.5%
same,maximal % inhibition of viability,UT-SCC-81; [10],77.7 ± 13%
same,maximal % inhibition of viability,UT-SCC-81; [11],89.7 ± 4.7%
same,maximal % inhibition of viability,UT-SCC-81; [12],79.7 ± 8.8%
same,maximal % inhibition of viability,UT-SCC-81; [13],81.7 ± 7.7%
same,maximal % inhibition of viability,UT-SCC-8; [9],91.8 ± 9%
same,maximal % inhibition of viability,UT-SCC-8; [10],71.3 ± 21%
same,maximal % inhibition of viability,UT-SCC-8; [11],82.1 ± 19%
same,maximal % inhibition of viability,UT-SCC-8; [12],78.7 ± 14%
same,maximal % inhibition of viability,UT-SCC-8; [13],84 ± 14%
same,drug sensitivity score,UT-SCC-106A [5]; [9],17.5 ± 1.9 DSS
same,drug sensitivity score,UT-SCC-106A [5]; [10],9.13 ± 3.2 DSS
same,drug sensitivity score,UT-SCC-106A [5]; [11],15 ± 3.7 DSS
same,drug sensitivity score,UT-SCC-106A [5]; [12],8.9 ± 4.4 DSS
same,drug sensitivity score,UT-SCC-106A [5]; [13],15.3 ± 3 DSS
same,drug sensitivity score,UT-SCC-14 [6]; [9],14.9 ± 7.8 DSS
same,drug sensitivity score,UT-SCC-14 [6]; [10],8.67 ± 4.7 DSS
same,drug sensitivity score,UT-SCC-14 [6]; [11],12.8 ± 5.7 DSS
same,drug sensitivity score,UT-SCC-14 [6]; [12],9.9 ± 2.5 DSS
same,drug sensitivity score,UT-SCC-14 [6]; [13],9.5 ± 2 DSS
same,drug sensitivity score,UT-SCC-42A [7]; [9],5.87 ± 2.1 DSS
same,drug sensitivity score,UT-SCC-42A [7]; [10],5.73 ± 2.2 DSS
same,drug sensitivity score,UT-SCC-42A [7]; [11],7.63 ± 4.4 DSS
same,drug sensitivity score,UT-SCC-42A [7]; [12],6.6 ± 2.3 DSS
same,drug sensitivity score,UT-SCC-42A [7]; [13],7.97 ± 3.2 DSS
same,drug sensitivity score,UT-SCC-42B [8]; [9],10.2 ± 4.3 DSS
same,drug sensitivity score,UT-SCC-42B [8]; [11],1.8 ± 1.7 DSS
same,drug sensitivity score,UT-SCC-42B [8]; [12],1 ± 0.87 DSS
same,drug sensitivity score,UT-SCC-42B [8]; [13],0.967 ± 0.58 DSS
